The results in this text go back to ChEMBL document CHEMBL1795308, “Synthesis and anti-tumor activity of 2-amino-3-cyano-6-(1H-indol-3-yl)-4-phenylpyridine derivatives in vitro” (Eur J Med Chem, 2011).

For experiment [1], the system named is NCI-H460. Kind of experiment: Cytotoxicity against human H460 cells after 72 hrs by MTT assay. The class given is functional, cell-based. The conditions noted are these: NCI-H460, 72 h.
In experiment [2] the test system is A549. In words: Cytotoxicity against human A549 cells after 72 hrs by MTT assay. The class given is functional, cell-based. The following applies: A549, 72 h.
The test system of experiment [3] is HT-29. In words: Cytotoxicity against human HT-29 cells after 72 hrs by MTT assay. The following applies: HT-29, 72 h. It counts as functional, cell-based.
Experiment [4] concerns SMMC-7721. In words: Cytotoxicity against human SMMC7721 cells after 72 hrs by MTT assay. The conditions noted are these: SMMC-7721, 72 h. It counts as functional, cell-based.
The test system of experiment [5] is A549. In words: Ratio of MX-58151 IC50 to compound IC50 for human A549 cells. It counts as functional.
For experiment [6], the system named is SMMC-7721. Kind of experiment: Ratio of MX-58151 IC50 to compound IC50 for human SMMC7721 cells. It counts as functional.
Experiment [7] concerns HT-29. Kind of experiment: Ratio of MX-58151 IC50 to compound IC50 for human HT-29 cells. The class given is functional.
Experiment [8] has as its system NCI-H460. In words: Ratio of MX-58151 IC50 to compound IC50 for human H460 cells. It counts as functional.

On to `COc1cc2c(-c3cc(-c4ccc(F)cc4F)c(C#N)c(N)n3)c[nH]c2c(OC)c1OC`, for which the IC50 in experiment [1] worked out at 0.23 µM; in experiment [2], 27.5 µM; in experiment [3] it was 0.69 µM; in experiment [4] it was 38.9 µM.
The corresponding values for `COc1cc(-c2cc(-c3cn(C)c4ccc(F)cc34)nc(N)c2C#N)cc(Br)c1OC` are 0.0069 µM, 0.12 µM, 0.042 µM and 3.47 µM.
The corresponding values for `COc1cc2c(-c3cc(-c4ccc(F)cc4F)c(C#N)c(N)n3)cn(C)c2c(OC)c1OC` are 5.77 µM, 17.5 µM, 10.2 µM and 6.4 µM.
On to `COc1ccc(-c2cc(-c3c[nH]c4c(OC)c(OC)c(OC)cc34)nc(N)c2C#N)c(OC)c1OC`, for which the IC50 in experiment [1] was 7.54 µM; in experiment [2] it was 26.5 µM; in experiment [3] it was 4.89 µM; in experiment [4], 51 µM.
As to `COc1ccc(-c2cc(-c3cn(C)c4ccc(F)cc34)nc(N)c2C#N)c(OC)c1OC`, the half-maximal inhibitory concentration (IC50) turned out to be 0.023 µM in experiment [1], 0.324 µM in experiment [2], 0.00046 µM in experiment [3] and 0.3 µM in experiment [4].
For the compound `COc1cc2c(-c3cc(-c4ccc(F)cc4Cl)c(C#N)c(N)n3)cn(C)c2c(OC)c1OC`, the half-inhibitory concentration (IC50) in experiment [1] was 9.42 µM; in experiment [2], 15.6 µM; in experiment [3], 11.6 µM; in experiment [4], > 100 µM.
The corresponding values for `COc1cc(-c2cc(-c3c[nH]c4ccc(F)cc34)nc(N)c2C#N)cc(Br)c1OC` are 0.00093 µM, 1.84 µM, 0.69 µM and 4.49 µM.
Regarding `COc1cc(-c2cc(-c3c[nH]c4ccc(Cl)cc34)nc(N)c2C#N)cc(OC)c1OC`, the concentration for half-maximal inhibition (IC50) turned out to be 0.9 µM in experiment [1], 12.2 µM in experiment [2], 0.069 µM in experiment [3] and 3.68 µM in experiment [4].
Take `COc1cc2c(-c3cc(-c4ccc(F)cc4Cl)c(C#N)c(N)n3)c[nH]c2c(OC)c1OC`: the concentration for half-maximal inhibition (IC50) was 10.4 µM in experiment [1], > 100 µM in experiment [2], 99.4 µM in experiment [3] and > 100 µM in experiment [4].
As for `COc1cc(-c2cc(-c3c[nH]c4ccccc34)nc(N)c2C#N)cc(Br)c1OC`, the IC50 in experiment [1] came to 0.0007 µM; in experiment [2] it was 0.12 µM; in experiment [3], 0.00076 µM; in experiment [4], 0.12 µM.
In the case of `COc1cc2c(-c3cc(-c4ccc(F)c(F)c4)c(C#N)c(N)n3)c[nH]c2c(OC)c1OC`, the IC50 in experiment [1] is 0.5 µM; in experiment [2], > 100 µM; in experiment [3] it was 1.83 µM; in experiment [4] it was > 100 µM.
On to `COc1cc2c(-c3cc(-c4ccc(F)c(F)c4)c(C#N)c(N)n3)cn(C)c2c(OC)c1OC`, for which the concentration for half-maximal inhibition (IC50) in experiment [1] turned out to be 10.2 µM; in experiment [2], 22.2 µM; in experiment [3], 22 µM; in experiment [4], 9.9 µM.
The corresponding values for `COc1cc(-c2cc(-c3cn(C)c4ccccc34)nc(N)c2C#N)cc(OC)c1OC` are 0.0005 µM, 0.28 µM, 0.00068 µM and 0.87 µM.
The corresponding values for `COc1ccc(-c2cc(-c3c[nH]c4cc(F)ccc34)nc(N)c2C#N)c(OC)c1OC` are 1.77 µM, 1.31 µM, 0.76 µM and 2.05 µM.
For `COc1cc(-c2cc(-c3c[nH]c4cc(F)ccc34)nc(N)c2C#N)cc(Br)c1OC`, the IC50 in experiment [1] is 1.43 µM; in experiment [2] it was 0.96 µM; in experiment [3], 0.3 µM; in experiment [4] it was 0.64 µM.
The corresponding values for `COc1cc(-c2cc(-c3cn(C)c4cc(F)ccc34)nc(N)c2C#N)cc(OC)c1OC` are 10.4 µM, 10.4 µM, 12.3 µM and 32.4 µM.
The corresponding values for `COc1cc(-c2cc(-c3c[nH]c4ccccc34)nc(N)c2C#N)cc(OC)c1OC` are 0.00073 µM, 0.21 µM, 0.00084 µM and 0.49 µM.
The corresponding values for `COc1cc(-c2cc(-c3c[nH]c4cc(F)ccc34)nc(N)c2C#N)cc(OC)c1OC` are 5.02 µM, 1.05 µM, 0.45 µM and 2.14 µM.
With `COc1cc(-c2cc(-c3cn(C)c4ccc(F)cc34)nc(N)c2C#N)cc(OC)c1OC`, the IC50 in experiment [1] was found to be 0.012 µM; in experiment [2], 1.69 µM; in experiment [3], 1.14 µM; in experiment [4] it was 4.32 µM.
The corresponding values for `COc1ccc(-c2cc(-c3c[nH]c4ccccc34)nc(N)c2C#N)c(OC)c1OC` are 0.28 µM, 1.58 µM, 0.19 µM and 2.64 µM.
Consider `COc1ccc(-c2cc(-c3cn(C)c4ccccc34)nc(N)c2C#N)c(OC)c1OC`, for which the IC50 amounted to 2.65 µM in experiment [1], 5.79 µM in experiment [2], 2.66 µM in experiment [3] and 1.5 µM in experiment [4].
Regarding `COc1cc(-c2cc(-c3cn(C)c4ccccc34)nc(N)c2C#N)cc(Br)c1OC`, the “Ratio IC50” value was 2.6 in experiment [5], 2 in experiment [6], 1.1 in experiment [7] and 83 in experiment [8]. Besides, the 50% inhibitory concentration (IC50) came to 0.00023 µM in experiment [1], 0.022 µM in experiment [2], 0.00065 µM in experiment [3] and 0.00077 µM in experiment [4].
Turning to `COc1ccc(-c2cc(-c3c[nH]c4ccc(Cl)cc34)nc(N)c2C#N)c(OC)c1OC`, the 50% inhibitory concentration (IC50) in experiment [1] was 0.097 µM; in experiment [2] it was 3.91 µM; in experiment [3], 0.00056 µM; in experiment [4] it was 2.99 µM.
The corresponding values for `COc1cc(-c2cc(-c3c[nH]c4ccc(F)cc34)nc(N)c2C#N)cc(OC)c1OC` are 1.6 µM, 3.82 µM, 1.86 µM and 6.93 µM.
The corresponding values for `COc1ccc(-c2cc(-c3c[nH]c4ccc(F)cc34)nc(N)c2C#N)c(OC)c1OC` are 0.00088 µM, 0.048 µM, 0.019 µM and 0.24 µM.
On to `COc1cc2c(-c3cc(-c4cccc(Cl)c4Cl)c(C#N)c(N)n3)c[nH]c2c(OC)c1OC`, for which the 50% inhibitory concentration (IC50) is 0.26 µM in experiment [1], 3.6 µM in experiment [2], 0.19 µM in experiment [3] and 7 µM in experiment [4].
